Results on one compound are retold here after patent US20250339443A1, “METHOD FOR TREATING OR PREVENTING CALCIUM RELEASE-ACTIVATED CALCIUM CHANNEL OR DISCOIDIN DOMAIN RECEPTOR 2 RELATED DISORDERS OR CONDITIONS” (LumiSTAR Biotechnology, Inc., priority 2023, published 2025).

Molecules are shown by their SMILES.

In assay [1] the target is T1, CRAC channel (Rattus norvegicus, UniProt Q5M848).
T1 construct: endogenous in cells; host or cells: HSC-T6
Description: CRAC channel activity / SOCE in HSC-T6. Format: cell-based. The following applies: HSC-T6, 10 μM pretreatment 45 min. On the procedure: Cells were co-treated with various compounds (10 μM) and TGF-β1 for 24 hours. Following this, cell lysates were harvested, and the protein expression was assessed by Western blot analysis. FIG. 3D depicts the examination of TGF-β1-induced fibronectin deposition and α-SMA expression in HCF treated with 10 μM of DMSO, BTP2, WRG-28, or Av through immunofluorescence staining. The images were captured using a confocal microscope, the Olympus FV-1000. FIG. 3E, FIG. 3F, and FIG. 3G illustrate the assessment of CRAC channel activity in HCF, MRC5, and rat HSC-T6. These cells were pretreated with 10 μM of BTP2, WRG-28, or Av for 45 min. The evaluation included measuring the second peak of each calcium wave and the rate of entry. Each bar within the figure represents the mean value derived from 77 to 91 cells for HCF, 31 to 49 cells for MRC5, and 43 to 94 cells for HSC-T6. In all the graphs, *, **, and *** denote p-values of <0.05, 0.01, and 0.001, respectively.
(§1) Cells cultured on a glass-bottom 96 well plate for 48 hours were treated with different compounds (10 μM) and Fura 2-AM (1 μM) simultaneously in a solution containing 145 mM NaCl, 2.8 mM KCl, 2 mM CaCl2, 2 mM MgCl2, 10 mM D-glucose, 10 mM HEPES, pH 7.4 for 40 minutes in the dark. […] All the images were analyzed by using IGOR Pro software. […]

Assay [2] concerns the target CRAC channel (Homo sapiens, UniProt Q96D31). Description: SOCE in T cells. On the set-up: endogenous in cells; host or cells: HEK293T. The following applies: 10 μM. The class given is cell-based. On the procedure: The effects of BTP2, WRG-28, Av, and CM-4620 on SOCE were evaluated in T cells (FIG. 4A) and macrophages (FIG. 4E). Cells were cultured on glass-bottom 96-well plates and pretreated with various compounds (10 μM) while being loaded with Fura 2-AM. Subsequently, the cytosolic calcium signal waves were recorded, and the second peak of each wave and rate of entry were assessed. Each bar represents the mean value derived from, 43 to 111 cells for T cells (FIG. 4A), and 52 to 91 cells for macrophages (FIG. 4E). Cytokine induction in T cells and macrophages was conducted as described in the methods section. The levels of cytokines, including IL-2, TNF-α, and IL-6 in the culture medium were assessed using ELISA kits for T cells (FIG. 4B, FIG. 4C, and FIG. 4D) and macrophages (FIG. 4F, FIG. 4G, and FIG. 4H), respectively. Each bar represents the mean±SEM. In all the graphs, *, **, and *** denote p-values of <0.05, 0.01, and 0.001, respectively. […]
as §1

Chain of CRAC channel (Homo sapiens, UniProt Q96D31) (Q96D31 whole entry): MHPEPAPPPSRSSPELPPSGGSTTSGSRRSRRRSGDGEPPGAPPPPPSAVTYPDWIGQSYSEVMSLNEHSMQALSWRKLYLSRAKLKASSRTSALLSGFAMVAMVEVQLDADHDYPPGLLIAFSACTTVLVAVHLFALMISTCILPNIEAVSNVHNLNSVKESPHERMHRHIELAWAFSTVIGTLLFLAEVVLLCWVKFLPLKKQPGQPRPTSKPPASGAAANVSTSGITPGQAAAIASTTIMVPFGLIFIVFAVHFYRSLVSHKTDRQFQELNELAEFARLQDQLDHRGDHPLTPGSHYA
T1 sequence (Q5M848 whole entry): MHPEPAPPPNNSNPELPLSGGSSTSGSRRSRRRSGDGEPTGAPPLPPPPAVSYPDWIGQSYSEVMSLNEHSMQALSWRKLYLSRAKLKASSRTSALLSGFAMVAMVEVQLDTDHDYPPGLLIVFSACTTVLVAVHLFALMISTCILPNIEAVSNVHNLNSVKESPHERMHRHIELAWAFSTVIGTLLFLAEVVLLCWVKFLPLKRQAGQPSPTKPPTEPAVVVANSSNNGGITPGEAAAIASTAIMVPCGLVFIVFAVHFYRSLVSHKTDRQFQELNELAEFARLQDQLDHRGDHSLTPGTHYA

As for `CCNS(=O)(=O)c1ccc(COc2ccc3nc4ccc(=O)cc-4oc3c2)cc1` [WRG-28], on CRAC channel [1], the SOCE entry is on record as “notably reduced”. Moreover, the “SOCE in T cells” value at CRAC channel [2] is listed as “higher efficacy compared to Av”.
